In patent US20210008018A1, “DEUTERATED ANALOGS OF D-BETA-HYDROXYBUTYRIC ACID AND USES THEREOF” (Concert Pharmaceuticals, Inc., priority 2018, published 2021):

How the values were obtained:
[1] = target: β-hydroxybutyrate dehydrogenase (Paucimonas lemoignei, UniProt A0A4R3I0R9); experiment: Metabolic stability using D-β-hydroxybutyrate dehydrogenase (NADH formation, Km/Vmax); details: Pseudomonas lemoignei, pH 7.8
Method: (§1) Materials: β-Hydroxybutyrate Dehydrogenase from Pseudomonas lemoignei, nicotinamide adenine dinucleotide sodium salt (NAD), β-nicotinamide adenine dinucleotide, reduced dipotassium salt (NADH) and Trizma Base were purchased from Sigma-Aldrich.
(§2) Determination of Metabolic Stability of Compounds of the Invention Using D-β-hydroxybutyrate Dehydrogenase: 100 mM Tris pH 7.8 was prepared for assessing catalytic activity and as diluent to form corresponding solutions. Enzyme solution was prepared by dissolving lyophilized β-hydroxybutyrate dehydrogenase from Pseudomonas lemoignei in 100 mM Tris pH 7.8 to a final concentration of 200 Units/mL. The enzyme working stock solution (2 Units/mL) was prepared by dilution of stock solution (200 Units/mL) with 100 mM Tris pH 7.8 buffer. 30 mM NAD stock solution was prepared by dissolving NAD in 100 mM Tris pH 7.8 buffer. […] Working stock solutions of test compounds were prepared over the concentration range of 1 to 40 mM by appropriate dilutions in 100 mM Tris pH 7.8 buffer. 10 mM analytical standard stock solution were prepared by dissolving NADH in 100 mM Tris pH 7.8. Analytical standards were prepared over the concentration range of 0.05 to 1.5 mM by appropriate dilutions in 100 mM Tris pH 7.8. Enzymatic assays were conducted by aliquoting 40 μL of working test compound stock solution, 6 μL of enzyme working stock solution, 178 μL 100 mM Tris pH 7.8 into 96-well white clear bottom plates. The enzymatic assay was initiated by adding 16 μL of 30 mM NAD. The reaction was incubated at 37° C. The progress of each reaction was monitored over 15 minutes by measuring absorbance at […] of all wells every minute using a Perkin Elmer Enspire Multimode plate reader. Blank wells were prepared to subtract background. NADH formation was quantified using NADH analytical standard curve on same 96-well plate used to monitor enzyme activity. All reactions were conducted in triplicate.
(§3) The activity was determined by monitoring the rate of conversion of NAD to NADH by change in absorbance at 340 nm. The appropriate background was subtracted for each concentration and compound investigated and NADH concentration formed was calculated using NADH standard curve. The initial rates (v) for NADH formation as a function of initial test compound concentration (C) to derive Km and Vmax values by non-linear regression using Michaelis-Menten equation using GraphPad Prism 7 for Windows (version 7.03).
(§4) Difference between Vmax, Km and catalytic efficiency (Vmax/Km) for each compound was assessed using unpaired t-test with statistical significance using Holm-Sidak method with α=0.05. The unpaired t-test values were calculated using GraphPad Prism 7 for Windows (version 7.03).
(§5) Intrinsic clearance (CLint) and half-life (t1/2) values were calculated for each test compound using the following equations.

[2] = target: β-hydroxybutyrate dehydrogenase from Pseudomonas lemoignei (Paucimonas lemoignei, UniProt A0A4R3I0R9); experiment: as above; details: for CLint: intrinsic clearance calculated from Vmax and Km; for CLint Ratio (NCE/PCE): NCE = Compound 100, 102 or 202, PCE = protio DBHB; for T1/2 Δ (%): [(deuterated species)-(nondeuterated species)](100)/(nondeuterated species); for half-life: b-hydroxybutyrate dehydrogenase, pH 7.8; for Vmax: compound as substrate, NADH formation, Michaelis-Menten non-linear regression, 100 mM Tris pH 7.8; for ^DV: deuterium isotope effect on Vmax versus D-β-hydroxybutyric acid; for ^D(V/K): deuterium isotope effect on Vmax/Km versus D-β-hydroxybutyric acid
β-hydroxybutyrate dehydrogenase from Pseudomonas lemoignei, sequence (A0A4R3I0R9 entry or part of it): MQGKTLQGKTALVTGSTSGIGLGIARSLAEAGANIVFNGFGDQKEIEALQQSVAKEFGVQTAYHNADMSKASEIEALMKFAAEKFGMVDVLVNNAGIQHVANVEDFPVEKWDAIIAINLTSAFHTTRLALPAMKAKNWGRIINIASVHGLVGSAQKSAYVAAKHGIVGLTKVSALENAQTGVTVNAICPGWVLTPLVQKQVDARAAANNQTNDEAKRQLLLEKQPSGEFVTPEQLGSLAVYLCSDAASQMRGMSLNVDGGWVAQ
Method: as §1, §2, §3, §4, §5

[3] = using Vmax/Km to predict clearance, vs D-β-hydroxybutyric acid, 0.167 mM to 6.7 mM
[4] = vs D-β-hydroxybutyric acid, D-β-Hydroxybutyrate Dehydrogenase Assay

β-hydroxybutyrate dehydrogenase, sequence (A0A4R3I0R9 entry or part of it): as above

half-life [1] [min]	SMILES	CLint [2] [mL/min]	CLint Ratio (NCE/PCE) [2]	T1/2 Δ (%) [2] [%]	half-life [2] [min]	Vmax ([2]; 0.167 mM to 6.7 mM) [µmol/mL/min]	^DV [2]	^D(V/K) [2]	clearance predicted to be increased by, compared to D-β-hydroxybutyric acid [2, 3] [%]	decrease in half-life (T1/2) [2, 4] [%]	clearance predicted to be reduced by, compared to D-β-hydroxybutyric acid [2, 3] [%]	increase in half-life (T1/2) [2, 4] [%]
26	C[C@@H](O)CC(=O)O [DBHB, D-β-hydroxybutyric acid, reference compound]	0.0267	–	–	–	–	–	–	–	–	–	–
–	[2H]C([2H])([2H])[C@@H](O)CC(=O)O [Compound 202, (R)-3-hydroxybutanoic-4,4,4-d3 Acid]	0.0520	2.0	−48.7	13.3	0.0330	0.7	0.5	100	~49	–	–
–	[2H]C([2H])([2H])[C@@]([2H])(O)CC(=O)O [Compound 102, (R)-3-hydroxybutanoic-3,4,4,4-d4 Acid]	0.0125	0.5	114	55.7	0.0213	1.0	2.1	–	–	50	114
36.4	[2H][C@](C)(O)CC(=O)O [Compound 100, (R)-3-Hydroxybutanoic-3-d1 Acid]	0.0190	0.7	40.2	–	–	1.1	1.4	–	–	30	40
